{"source": "patent US12318359B2", "about": "“Combination methods and compositions including sleep therapeutics for treating mood” (priority 2012, dated 2025)", "tested_on": "depression", "assay": "Beck Depression Inventory II score, case study of a depressed patient", "format": "in vivo, human", "conditions": "person; after three months of fluoxetine monotherapy (20 mg daily raised to 60 mg daily); score at first visit 28", "description": "“Depression symptoms rating scale” refers to any one of a number of standardized questionnaires, clinical instruments, or symptom inventories utilized to measure symptoms and symptom severity in depression. Such rating scales are often used in clinical studies to define treatment outcomes, based on changes from the study's entry point(s) to endpoint(s). Such depression symptoms rating scales include, but are not limited to, The Quick Inventory of Depressive-Symptomatology Self-Report (QIDS-SR16), the 17-Item Hamilton Rating Scale of Depression (HRSD17), the 30-Item Inventory of Depressive Symptomatology (IDS-C30), or The Montgomery-Asperg Depression Rating Scale (MADRS) and […] Depression Inventory II. Such ratings scales may involve patient self-report or be clinician rated. A 50% or greater reduction in a depression ratings scale score over the course of a clinical trial (starting point to endpoint) is typically considered a favorable response for most depression symptoms rating scales. “Remission” in clinical studies of depression often refers to achieving at, or below, a particular numerical rating score on a depression symptoms rating scale, i.e., less than or equal to 7 on the HRSD17; or less than or equal to 5 on the QIDS-SR16; or less than or equal to 10 on the MADRS or less than or equal to 9 on the Beck Depression Inventory II. […]"}
{"smiles": "CNCCC(Oc1ccc(C(F)(F)F)cc1)c1ccccc1", "note": "(stereo not shown) [fluoxetine]", "values": [{"measurement": "Beck Depression Inventory II score", "result": 26}]}
